Patent US12630585B2, “Antibacterial tryglysin agents” (The Trustees of Princeton University, priority 2020, dated 2026)
Where no end group is shown, it is not given here.

Columns and labels:
S. mutans [1] = assay: Morphological changes (cell chaining) by microscopy after tryglysin treatment; assay type: cell-based, Streptococcus mutans; settings: 100 nM
Description: FIG. 4 is a graph showing the quantification of chains greater than three cells in length for S. mutans exposed to 100 nM tryglysin A for 2 h, 5 h, or 7 h. A minimum of 100 cells were observed per condition and time point. −, no tryglysin A; +, 100 nM tryglysin A. **, P<0.01; ns, not significant by one-way ANOVA with Dunnet's multiple comparison posttest.
The impact of tryglysins on gross morphological changes to cell shape was examined at 2, 5, and 7 h after treatment with 100 nM tryglysin A or B by microscopy.
Prestored glycerol stocks of S. mutans strains at −80° C. were inoculated into THY broth and incubated overnight at 37° C. in an atmosphere of 5% CO2. CDM was prepared and prewarmed at 37° C. in an atmosphere of 5% CO2 overnight. The next morning, strains were transferred to sterile 15-ml conical tubes and centrifuged at room temperature at 4,000×g for 10 min. Strains were resuspended in 1 ml prewarmed CDM, transferred to microcentrifuge tubes, and centrifuged again at room temperature at 14,000×g for 5 min. Supernatant was discarded, and strains were resuspended in 1 ml fresh prewarmed CDM. Resuspended strains were then inoculated into 6 ml prewarmed CDM at 1:200 dilution. At each time point, strains were monitored by measuring OD600 with a GENESYS 30 Vis spectrophotometer (Thermo-Fisher)
If required, at 1 h postinoculation, 100 nM tryglysin A or B was added to the media. For microscopic analysis of samples, 2 ml of live cells was taken at 2 h, 5 h, and 7 h after the addition of tryglysins and examined using an Olympus CKX53 inverted microscope with a 40× LCACHN-iPC infinity objective (LCACHN40XIPC; numerical aperture, 0.55) connected to a SC50 camera (Olympus). Images were processed using Olympus Stream Image Analysis software (Olympus).

S. sanguinis ATCC 10556 = assay: Culture growth upon treatment with 100 nM antibiotic; assay type: cell-based, Streptococcus sanguinis; design: key to Inhibition By (S. sanguinis ATCC 10556): “−” indicates not inhibited; “+” indicates mildly inhibited; “++” indicates inhibited
Description: (§1) Other streptococcal species have similar dose-dependent growth inhibitory responses to tryglysins. WGK peptides inhibit growth of several streptococcal species, but not E. faecalis or L. lactis. We extended the evaluation of tryglysin inhibitory activity to other bacterial species. Culture growth rates of several Gram-positive species were evaluated upon treatment with 100 nM each antibiotic. Most susceptible to treatments, with complete growth inhibition at only 100 nM tryglysins, were strains of S. mitis, S. oralis, and S. pneumoniae, each being members of the mitis group. […] Unaffected were cultures of S. pyogenes, Lactococcus lactis, and Enterococcus faecalis (FIG. S4A to F).
(§2) It can also be seen that the disclosed peptides inhibit growth of several streptococcal species, but not others outside of streptococcal species, such as E. faecalis or L. lactis.
(§3) Specifically, bacterial strains were grown from prestored glycerol stocks at −80° C. and inoculated into THY broth. Strains were incubated overnight at 37° C. in an atmosphere of 5% CO2, and the next morning, they were washed and resuspended in fresh, prewarmed CDM as described above in Example 4.

S. pneumoniae D39 = assay: as above; assay type: cell-based, Streptococcus pneumoniae; design: key: “−” indicates not inhibited; “+” indicates mildly inhibited; “++” indicates inhibited
Description: as §1, §2, §3

S. mitis CCUG 31611 = assay: as above; assay type: cell-based, Streptococcus mitis; design: key: “−” indicates not inhibited; “+” indicates mildly inhibited; “++” indicates inhibited
Description: as §1, §2, §3

S. bovis JB1 = assay: as above; assay type: cell-based, Streptococcus bovis; design: key to Inhibition By (S. bovis JB1): “−” indicates not inhibited; “+” indicates mildly inhibited; “++” indicates inhibited
Description: as §1, §2, §3

S. mutans UA159 = assay: as above; assay type: cell-based, Streptococcus mutans; design: key: “−” indicates not inhibited; “+” indicates mildly inhibited; “++” indicates inhibited
Description: as §1, §2, §3

S. pyogenes NZ131 = assay: as above; assay type: cell-based, Streptococcus pyogenes; design: key: “−” indicates not inhibited; “+” indicates mildly inhibited; “++” indicates inhibited
Description: as §1, §2, §3

S. oralis 108 = assay: as above; assay type: cell-based, Streptococcus oralis; design: key: “−” indicates not inhibited; “+” indicates mildly inhibited; “++” indicates inhibited
Description: as §1, §2, §3

L. lactis ATCC 11454 = assay: as above; assay type: cell-based, Lactococcus lactis; design: key: “−” indicates not inhibited; “+” indicates mildly inhibited; “++” indicates inhibited
Description: as §1, §2, §3

S. gordonii Challis Bt = assay: as above; assay type: cell-based, Streptococcus gordonii; design: key: “−” indicates not inhibited; “+” indicates mildly inhibited; “++” indicates inhibited
Description: as §1, §2, §3

S. mutans [2] = assay: Dose-dependent growth inhibition of cultures with tryglysin titrations over 9 hours; assay type: cell-based, Streptococcus mutans
Description: (§4) Growth inhibition of S. mutans and S. ferus cultures was tested with titrations of both tryglysin A and B over a period of 9 hours.
Referring to FIG. 3A, the dose-dependent growth inhibition of S. mutans by Triglysin A can be seen. Cultures exposed to no tryglysin A 301, 10 nM tryglysin A 302, 100 nM tryglysin A 303, and 1 μM tryglysin A 304 can be seen.
Referring to FIG. 3C, the dose-dependent growth inhibition of S. mutans by Triglysin B can be seen. Cultures exposed to no tryglysin B 321, 10 nM tryglysin B 322, 100 nM tryglysin B 323, and 1 μM tryglysin B 324 can be seen.

E. faecalis V583 = assay: Culture growth upon treatment with 100 nM antibiotic; assay type: cell-based, Enterococcus faecalis; design: key: “−” indicates not inhibited; “+” indicates mildly inhibited; “++” indicates inhibited
Description: as §1, §2, §3

S. agalactiae A909 = assay: as above; assay type: cell-based, Streptococcus agalactiae; design: key to Inhibition By (S. agalactiae A909): “−” indicates not inhibited; “+” indicates mildly inhibited; “++” indicates inhibited
Description: as §1, §2, §3

S. ferus DSM 20646 = assay: as above; assay type: cell-based, Streptococcus ferus; design: key: “−” indicates not inhibited; “+” indicates mildly inhibited; “++” indicates inhibited
Description: as §1, §2, §3

S. ferus = assay: Dose-dependent growth inhibition of cultures with tryglysin titrations over 9 hours; assay type: cell-based, Streptococcus ferus; settings: 9-h growth assay
Description: as §4
Referring to FIG. 3B, the dose-dependent growth inhibition of S. ferus by Triglysin A can be seen. Cultures exposed to no tryglysin A 311, 10 nM tryglysin A 312, and 100 nM tryglysin A 313 can be seen.
Referring to FIG. 3D, the dose-dependent growth inhibition of S. ferus by Triglysin B can be seen. Cultures exposed to no tryglysin B 331, 10 nM tryglysin B 332, and 100 nM tryglysin B 333 can be seen.

[3] = to a lower degree than for S. agalactiae

Row | Substance | chaining of S. mutans cells (chains greater than three cells in length) (S. mutans [1]; 5 h after addition) | chaining of S. mutans cells (chains greater than three cells in length) (S. mutans [1]; 7 h after addition) | Inhibition By (S. sanguinis ATCC 10556) (S. sanguinis ATCC 10556) | Inhibition By (S. pneumoniae D39) (S. pneumoniae D39) | Inhibition By (S. mitis CCUG 31611) (S. mitis CCUG 31611) | Inhibition By (S. bovis JB1) (S. bovis JB1) | Inhibition By (S. mutans UA159) (S. mutans UA159) | Inhibition By (S. pyogenes NZ131) (S. pyogenes NZ131) | Inhibition By (S. oralis 108) (S. oralis 108) | Inhibition By (L. lactis ATCC 11454) (L. lactis ATCC 11454) | Inhibition By (S. gordonii Challis Bt) (S. gordonii Challis Bt) | growth inhibition of S. mutans (S. mutans [2]; 10 nM, 9-h growth assay) | Inhibition By (E. faecalis V583) (E. faecalis V583) | Inhibition By (S. agalactiae A909) (S. agalactiae A909) | Inhibition By (S. ferus DSM 20646) (S. ferus DSM 20646) | growth inhibition of S. ferus (S. ferus; 10 nM) | growth inhibition of S. ferus (S. ferus; 100 nM) | other results
1 | Tryglysin A (VNSWGKH; bridge (positions not given here); also: macrocyclic, tetrahydro[5,6]benzindole modification, places not given here) | significantly increased | significantly increased | ++ | ++ | ++ | + | ++ | − | ++ | − | + | Significant growth inhibition | − | ++ | ++ | Significant growth inhibition | complete inhibition | inhibitory activity against S. sanguinis compared with variant B (S. sanguinis ATCC 10556; [3]): greater inhibitory activity; inhibitory activity against S. bovis compared with variant B (S. bovis JB1; [3]): greater inhibitory activity; growth inhibition of S. mutans (S. mutans [2]; 100 nM, 9-h growth assay): further inhibition; growth inhibition of S. mutans (S. mutans [2]; 1 μM, 9-h growth assay): further inhibition; inhibitory activity against S. agalactiae compared with variant B (S. agalactiae A909): greater inhibitory activity
2 | Tryglysin B (VNCWGKH; bridge (positions not given here); also: macrocyclic, tetrahydro[5,6]benzindole modification, places not given here; listed as Streptococcus ferus) | appeared to do the same | appeared to do the same | ++ | ++ | ++ | + | ++ | − | ++ | − | + | some inhibition | − | + | ++ | minimal inhibition | compete inhibition | concentration required for significant growth inhibition of S. mutans (S. mutans [2]; 9-h growth assay): at least 100 nM; concentration required for S. mutans to be completely inhibited (S. mutans [2]; over the 9-h growth assay): 1 µM
